Patent US10538555B2, “Macrocyclic inhibitors of the PD-1/PD-L1 and CD80(B7-1)/PD-L1 protein/protein interactions” (BRISTOL-MYERS SQUIBB COMPANY, priority 2014, dated 2020)
*1 amine or outer side, *2 acyl side, *3 side chain or, on linkers, in order; H or OH if unused. Where a SMILES comes first, the peptide text is derived from it. Bridges are numbered along the chain shown (N, C = ends). [ ]: non-standard residue; d: D form. ξ: configuration not given here. Trp(1-CH2COOH) = N[C@@H](Cc1cn(CC(=O)O)c2ccccc12)C(=O)O; Phe(2,4-Cl2) = N[C@@H](Cc1ccc(Cl)cc1Cl)C(=O)O; Trp(1-Me) = Cn1cc(C[C@H](N)C(=O)O)c2ccccc21; X8 = O=C([C@H](CC1CNc2ccccc21)N[*:1])[*:2]; Phe(4-F) = N[C@@H](Cc1ccc(F)cc1)C(=O)O; Bta = N[C@@H](Cc1csc2ccccc12)C(=O)O; Hyp = O=C(O)[C@@H]1C[C@@H](O)CN1; NMeF = CN[C@@H](Cc1ccccc1)C(=O)O; NMehSer = CN[C@@H](CCO)C(=O)O; NMeNle = CCCC[C@H](NC)C(=O)O; Pip = O=C(O)[C@@H]1CCCCN1; dPip = O=C(O)[C@H]1CCCCN1; NMeA = CN[C@@H](C)C(=O)O; Orn = NCCC[C@H](N)C(=O)O; Dap = NC[C@H](N)C(=O)O; ξC = NC(CS)C(=O)O

Biological target: T1, Human PD-L1/PD-1 (Homo sapiens, UniProt Q9NZQ7)
T1 construct: TVMV protease cleavage site (C); made in house; host or cells: HEK293T cells
T1 sequence (Q9NZQ7 with tags, fused parts or gaps): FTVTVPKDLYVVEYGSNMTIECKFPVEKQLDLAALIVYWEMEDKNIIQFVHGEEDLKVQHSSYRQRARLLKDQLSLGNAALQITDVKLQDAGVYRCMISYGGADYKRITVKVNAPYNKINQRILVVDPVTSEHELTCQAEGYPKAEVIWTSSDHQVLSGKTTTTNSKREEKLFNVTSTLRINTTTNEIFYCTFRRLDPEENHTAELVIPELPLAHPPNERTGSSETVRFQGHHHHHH
Test: HTRF Human PD-L1/PD-1 binding assay (PD-1-Ig/PD-L1-His)
Conditions: PD-L1-His 10 nM, PD-1-Ig 20 nM; class symbol; read-out: HTRF Human PD-L1/PD-1 Binding Assay IC50 Range
Excerpt: Methods for Testing the Ability of Macrocyclic Peptides to Compete for the Binding of PD-1 to PD-L1 Using Homogenous Time-Resolved Fluorescence (HTRF) Binding Assays
The ability of the macrocyclic peptides of the present disclosure to bind to PD-L1 was investigated using a PD-1/PD-L1 Homogenous Time-Resolved Fluorescence (HTRF) binding assay.
Homogenous Time-Resolved Fluorescence (HTRF) Assays of Binding of Soluble PD-1 to Soluble PD-L1. Soluble PD-1 and soluble PD-L1 refers to proteins with carboxyl-end truncations that remove the transmembrane-spanning regions and are fused to heterologous sequences, specifically the Fc portion of the human immunoglobuling G sequence (Ig) or the hexahistidine epitope tag (His). All binding studies were performed in an HTRF assay buffer consisting of dPBS supplemented with 0.1% (w/v) bovine serum albumin and 0.05% (v/v) Tween-20. For the PD-1-Ig/PD-L1-His binding assay, inhibitors were pre-incubated with PD-L1-His (10 nM final) for 15 m in 4 μl of assay buffer, followed by addition of PD-1-Ig (20 nM final) in 1 μl of assay buffer and further incubation for 15 m. PD-L1 fusion proteins from either human, cynomolgus macaques, or mouse were used. HTRF detection was achieved using europium crypate-labeled anti-Ig monoclonal antibody (1 nM final) and allophycocyanin (APC) labeled anti-His monoclonal antibody (20 nM final). Antibodies were diluted in HTRF detection buffer and 5 μl was dispensed on top of binding reaction. The reaction was allowed to equilibrate for 30 minutes and signal (665 nm/620 nm ratio) was obtained using an EnVision fluorometer. Additional binding assays were established between PD-1-Ig/PD-L2-His (20 and 5 nM, respectively), CD80-His/PD-L1-Ig (100 and 10 nM, respectively) and CD80-His/CTLA4-Ig (10 and 5 nM, respectively). Competition studies between biotinylated Compound No. 71 and human PD-L1-His were performed as follows. Macrocyclic peptide inhibitors were pre-incubated with PD-L1-His (10 nM final) for 60 minutes in 4 μl of assay buffer followed by addition of biotinylated Compound No. 71 (0.5 nM final) in 1 μl of assay buffer. Binding was allowed to equilibrate for 30 minutes followed by addition of europium crypated labeled Streptavidin (2.5 pM final) and APC-labeled anti-His (20 nM final) in 5 μl of HTRF buffer. The reaction was allowed to equilibrate for 30 m and signal (665 nm/620 nm ratio) was obtained using an EnVision fluorometer.
Recombinant Proteins. Carboxyl-truncated human PD-1 (amino acids 25-167) with a C-terminal human Ig epitope tag [hPD-1 (25-167)-3S-IG] and human PD-L1 (amino acids 18-239) with a C-terminal His epitope tag [hPD-L1([…])-tobacco vein mottling virus protease cleavage site (TVMV)-His] were expressed in HEK293T cells and purified sequentially by rProteinA affinity chromatography and size exclusion chromatography.

Structure (SMILES) | IC50 [nM]
CCCC[C@H]1C(=O)N(C)[C@@H](CCCC)C(=O)N[C@@H](CC(C)C)C(=O)N[C@H](C(N)=O)CSCC(=O)N[C@@H](Cc2ccc(O)cc2)C(=O)N(C)[C@@H](C)C(=O)N[C@@H](CC(N)=O)C(=O)N2CCC[C@H]2C(=O)N[C@@H](CN)C(=O)N[C@@H](CC(C)C)C(=O)N2C[C@H](O)C[C@H]2C(=O)N[C@@H](Cc2c[nH]c3ccccc23)C(=O)N[C@@H](CC(=O)O)C(=O)N[C@@H](Cc2cn(CC(=O)O)c3ccccc23)C(=O)N1C [Example 6258] ({CH2CO}-Y[NMeA]NP[Dap]L[Hyp]WD[Trp(1-CH2COOH)][NMeNle][NMeNle]LC-NH2; thioether N-14) | 10 to 99.9
CCCC[C@H]1C(=O)N(C)[C@@H](CCCC)C(=O)N[C@@H](CCCNC(=N)N)C(=O)NC(C(=O)NCC(N)=O)CSCC(=O)N[C@@H](Cc2ccc(O)cc2)C(=O)N(C)[C@@H](C)C(=O)N[C@@H](Cc2cnc[nH]2)C(=O)N2CCC[C@H]2C(=O)N[C@@H](CC(N)=O)C(=O)N[C@@H](CC(C)C)C(=O)N2C[C@H](O)C[C@H]2C(=O)N[C@@H](Cc2c[nH]c3ccccc23)C(=O)N[C@@H](CO)C(=O)N[C@@H](Cc2c[nH]c3ccccc23)C(=O)N1C (stereo partly shown) [Example 9146] ({CH2CO}-Y[NMeA]HPNL[Hyp]WSW[NMeNle][NMeNle]R[ξC]G-NH2; thioether N-14) | 1 to 9.9
CCCC[C@H]1C(=O)N(C)[C@@H](CCCC)C(=O)N[C@@H](C)C(=O)N[C@H](C(=O)NCC(N)=O)CSCC(=O)NC(Cc2ccc(O)cc2)C(=O)N2CCCC[C@H]2C(=O)N[C@@H](CC(N)=O)C(=O)N2CCC[C@H]2C(=O)N[C@@H](Cc2c[nH]cn2)C(=O)N[C@@H](CC(C)C)C(=O)N2C[C@H](O)C[C@H]2C(=O)N[C@@H](Cc2c[nH]c3ccccc23)C(=O)N[C@@H](CO)C(=O)N[C@@H](Cc2c[nH]c3ccccc23)C(=O)N1C (stereo partly shown) [Example 1251] | 1 to 9.9
CCCC[C@H]1C(=O)N(C)[C@@H](CCCC)C(=O)N[C@@H](CCC(=O)O)C(=O)N[C@H](C(=O)NCC(N)=O)CSCC(=O)N[C@@H](Cc2ccc(OC)cc2)C(=O)N(C)[C@@H](C)C(=O)N[C@@H](CC(=O)O)C(=O)N2CCC[C@H]2C(=O)N[C@@H](Cc2cnc[nH]2)C(=O)N[C@@H](CCCCN)C(=O)N2C[C@H](O)C[C@H]2C(=O)N[C@@H](Cc2c[nH]c3ccccc23)C(=O)N[C@@H](CC(=O)O)C(=O)N[C@@H](Cc2c[nH]c3ccccc23)C(=O)N1C [Example 7131] ({CH2CO}-Y(Me)[NMeA]DPHK[Hyp]WDW[NMeNle][NMeNle]ECG-NH2; thioether N-14) | 1 to 9.9
CCCC[C@H]1C(=O)N(C)[C@@H](CCCC)C(=O)N[C@@H](CN)C(=O)N[C@H](C(=O)NCC(N)=O)CSCC(=O)N[C@@H](Cc2ccc(O)cc2)C(=O)N(C)[C@@H](C)C(=O)N[C@@H](CC(N)=O)C(=O)N2CCC[C@H]2C(=O)N[C@@H](CN)C(=O)N[C@@H](CCC(=O)O)C(=O)N2C[C@H](O)C[C@H]2C(=O)N[C@@H](Cc2c[nH]c3ccccc23)C(=O)N[C@@H](CO)C(=O)N[C@@H](Cc2cn(CC(=O)O)c3ccccc23)C(=O)N1C [Example 5231] ({CH2CO}-Y[NMeA]NP[Dap]E[Hyp]WS[Trp(1-CH2COOH)][NMeNle][NMeNle][Dap]CG-NH2; thioether N-14) | 1 to 9.9
CCCC[C@H]1C(=O)N(C)[C@@H](CCCC)C(=O)N[C@@H](CCC(=O)O)C(=O)N[C@H](C(=O)NCC(N)=O)CSCC(=O)N[C@@H](Cc2ccc(O)cc2)C(=O)N(C)[C@@H](C)C(=O)N[C@@H](CC(=O)O)C(=O)N2CCC[C@H]2C(=O)N[C@@H](CO)C(=O)N[C@@H](CCC(=O)O)C(=O)N2C[C@H](O)C[C@H]2C(=O)N[C@@H](Cc2c[nH]c3ccccc23)C(=O)N[C@@H](CCC(=O)O)C(=O)N[C@@H](Cc2c[nH]c3ccccc23)C(=O)N1C [Example 5260] ({CH2CO}-Y[NMeA]DPSE[Hyp]WEW[NMeNle][NMeNle]ECG-NH2; thioether N-14) | 1 to 9.9
CCCC[C@H]1C(=O)N(C)[C@@H](CCCC)C(=O)N[C@@H](CCCNC(=N)N)C(=O)N[C@H](C(=O)NCC(N)=O)CSCC(=O)N[C@@H](Cc2ccc(Cl)cc2Cl)C(=O)N(C)[C@@H](C)C(=O)N[C@@H](CC(N)=O)C(=O)N2CCC[C@H]2C(=O)N[C@@H](CN)C(=O)N[C@@H](CC(C)C)C(=O)N2C[C@H](O)C[C@H]2C(=O)N[C@@H](Cc2c[nH]c3ccccc23)C(=O)N[C@@H](CO)C(=O)N[C@@H](CC2CNc3ccccc32)C(=O)N1C (stereo partly shown) [Example 7069] ({CH2CO}-[Phe(2,4-Cl2)][NMeA]NP[Dap]L[Hyp]WS[X8][NMeNle][NMeNle]RCG-NH2; thioether N-14) | 1 to 9.9
CCCC[C@H]1C(=O)N(C)[C@@H](CCCC)C(=O)N[C@@H](C)C(=O)N[C@H](C(=O)NCC(N)=O)CSCC(=O)N[C@@H](Cc2ccc(O)cc2)C(=O)N2CCCC[C@H]2C(=O)N[C@@H](CC(=O)O)C(=O)N2CCC[C@H]2C(=O)N[C@@H](Cc2cnc[nH]2)C(=O)N[C@@H](CCC(N)=O)C(=O)N2C[C@H](O)C[C@H]2C(=O)N[C@@H](Cc2c[nH]c3ccccc23)C(=O)N[C@@H](CO)C(=O)N[C@@H](Cc2cn(C)c3ccccc23)C(=O)N1C [Example 1502] ({CH2CO}-Y[Pip]DPHQ[Hyp]WS[Trp(1-Me)][NMeNle][NMeNle]ACG-NH2; thioether N-14) | 10 to 99.9

More lines, now with the values ahead:

IC50 [nM] | Structure (SMILES)
10 to 99.9 | CCCC[C@H]1C(=O)N(C)[C@@H](CCCC)C(=O)N[C@@H](CCCNC(=N)N)C(=O)NC(C(=O)NCC(N)=O)CSCC(=O)N[C@@H](Cc2ccc(O)cc2)C(=O)N(C)[C@@H](C)C(=O)N[C@@H](CC(N)=O)C(=O)N2CCC[C@H]2C(=O)N[C@@H](Cc2cnc[nH]2)C(=O)N[C@@H](CC(C)C)C(=O)N2CCC[C@H]2C(=O)N[C@@H](Cc2c[nH]c3ccccc23)C(=O)N[C@@H](CO)C(=O)N[C@@H](Cc2csc3ccccc23)C(=O)N1C (stereo partly shown) [Example 10045] ({CH2CO}-Y[NMeA]NPHLPWS[Bta][NMeNle][NMeNle]R[ξC]G-NH2; thioether N-14)
100 to 990 | CCCC[C@H]1C(=O)N2CCC[C@@H]2C(=O)N[C@@H](CC(=O)O)C(=O)N[C@@H](C(C)C)C(=O)N(C)[C@@H](CCOC)C(=O)N[C@@H](CCC(N)=O)C(=O)N2CCC[C@@H]2C(=O)N[C@@H](Cc2c[nH]c3ccccc23)C(=O)N[C@@H](Cc2ccc(O)cc2)C(=O)N[C@@H](CC(C)C)C(=O)N[C@H](C(=O)NCC(N)=O)CSCC(=O)N[C@@H](Cc2ccc(F)cc2)C(=O)N(C)[C@@H](Cc2ccccc2)C(=O)N1C [Example 9223] ({CH2CO}-[Phe(4-F)][NMeF][NMeNle][dP]DV[NMehSer](Me)Q[dP]WYLCG-NH2; thioether N-13)
10 to 99.9 | CCCC[C@H]1C(=O)N2CCC[C@@H]2C(=O)N[C@@H](CO)C(=O)N[C@@H](C(C)C)C(=O)N(C)[C@@H](Cc2ccccc2)C(=O)N[C@@H](Cc2ccc(O)cc2)C(=O)N2CCCC[C@@H]2C(=O)N[C@@H](Cc2c[nH]c3ccccc23)C(=O)N[C@@H](Cc2ccc(O)cc2)C(=O)N[C@@H](CC(C)C)C(=O)N[C@H](C(=O)NCC(N)=O)CSCC(=O)N[C@@H](Cc2ccccc2)C(=O)N(C)[C@@H](Cc2ccccc2)C(=O)N1C [Example 10064] ({CH2CO}-F[NMeF][NMeNle][dP]SV[NMeF]Y[dPip]WYLCG-NH2; thioether N-13)
10 to 99.9 | CCCC[C@H]1C(=O)N[C@@H](CCC(N)=O)C(=O)N2CCCC[C@@H]2C(=O)N[C@@H](Cc2c[nH]c3ccccc23)C(=O)N[C@@H](Cc2ccc(O)cc2)C(=O)N[C@@H](CCCN)C(=O)N[C@H](C(=O)NCC(N)=O)CSCC(=O)N[C@@H](Cc2ccc(F)cc2)C(=O)N(C)[C@@H](Cc2ccccc2)C(=O)N(C)[C@@H](CCCC)C(=O)N2CCC[C@@H]2C(=O)N[C@@H](CC(=O)O)C(=O)N[C@@H](C(C)C)C(=O)N1C [Example 9218] ({CH2CO}-[Phe(4-F)][NMeF][NMeNle][dP]DV[NMeNle]Q[dPip]WY[Orn]CG-NH2; thioether N-13)
100 to 990 | CCCC[C@H]1C(=O)N(C)[C@@H](CCCC)C(=O)N[C@@H](CCC(=O)O)C(=O)NC(C(=O)NCC(N)=O)CSCC(=O)N[C@@H](Cc2ccc(O)cc2)C(=O)N(C)[C@@H](C)C(=O)N[C@@H](CC(N)=O)C(=O)N2CCC[C@H]2C(=O)N[C@@H](Cc2c[nH]cn2)C(=O)N[C@@H](CC(N)=O)C(=O)N2C[C@H](O)C[C@H]2C(=O)N[C@@H](Cc2c[nH]c3ccccc23)C(=O)N[C@@H](CN)C(=O)N[C@@H](Cc2c[nH]c3ccccc23)C(=O)N1C (stereo partly shown) [Example 9179] ({CH2CO}-Y[NMeA]NPHN[Hyp]W[Dap]W[NMeNle][NMeNle]E[ξC]G-NH2; thioether N-14)
